Experimental findings from US11034650B2, “Compounds useful for treating a Mannheimia haemolytica or Histophilus somni infection” (Intervet Inc., priority 2016, dated 2021) are described below.

Common to all, as to assay type: cell-based
Assay [1] deals with Pasteurella multocida PM 6267 (P 2225 (L386), reference strain, mouse infection strain). Put plainly: MIC, broth-microdilution (CLSI VET01-A4), strain PM 6267. The following applies: Pasteurella multocida strain PM 6267, broth-microdilution; unit assumed. Summed up: (§1)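 Read-out is unaided visual inspection for turbidity. The minimum inhibitory concentration is the lowest tested level without detectable growth across a two-fold compound series.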
Background: Dilution methods test growth across graded concentrations, often in twofold steps.

Assay [2] deals with Mannheimia haemolytica MH 6374 (ATCC 33396, reference strain). Description: MIC, broth-microdilution (CLSI VET01-A4), strain MH 6374. Particulars: Mannheimia haemolytica strain MH 6374, broth-microdilution; unit assumed. The method in brief: as §1
Assay [3] concerns Mannheimia haemolytica MH 13093 (XB0472-6014.1, BRD field isolate). Put plainly: MIC, broth-microdilution (CLSI VET01-A4), strain MH 13093. Particulars: Mannheimia haemolytica strain MH 13093, broth-microdilution; unit assumed. Summed up: as §1
Assay [4] deals with Mannheimia haemolytica MH 6357 (M7/2, reference strain, cattle infection strain). Put plainly: MIC, broth-microdilution (CLSI VET01-A4), strain MH 6357. The following applies: Mannheimia haemolytica strain MH 6357, broth-microdilution; unit assumed. Summed up:
as §1

Assay [5] concerns Pasteurella multocida PM 10775 (080130003051, BRD field isolate). Put plainly: MIC, broth-microdilution (CLSI VET01-A4), strain PM 10775. Particulars: Pasteurella multocida strain PM 10775, broth-microdilution; unit assumed. The method in brief: as §1
Assay [6] has as its system Mannheimia haemolytica MH 12587 (1071, BRD field isolate, macrolide-resistance: erm+, E+). Description: MIC, broth-microdilution (CLSI VET01-A4), strain MH 12587. The following applies: Mannheimia haemolytica strain MH 12587, broth-microdilution; unit assumed. Summed up: as §1
Assay [7] relates to Mannheimia haemolytica MH 10720 (154, BRD field isolate). Description: MIC, broth-microdilution (CLSI VET01-A4), strain MH 10720. Particulars: Mannheimia haemolytica strain MH 10720, broth-microdilution; unit assumed. Summed up:
as §1

Assay [8] deals with Pasteurella multocida PM 12080 (IV102277-0093, BRD field isolate). Put plainly: MIC, broth-microdilution (CLSI VET01-A4), strain PM 12080. The following applies: Pasteurella multocida strain PM 12080, broth-microdilution; unit assumed. Summed up:
as §1

Assay [9] deals with Mannheimia haemolytica MH 13065 (XB0446-6003.9, BRD field isolate). Put plainly: MIC, broth-microdilution (CLSI VET01-A4), strain MH 13065. Particulars: Mannheimia haemolytica strain MH 13065, broth-microdilution; unit assumed. The method in brief: as §1
Assay [10] concerns Pasteurella multocida PM 6391 (ATCC 43137, reference strain). Put plainly: MIC, broth-microdilution (CLSI VET01-A4), strain PM 6391. Particulars: Pasteurella multocida strain PM 6391, broth-microdilution; unit assumed. The procedure: For example, representative compounds were tested against ***, Mannheimia haemolytica and Pasteurella multocida, using the conventional broth-dilution assay.
The Minimum inhibitory concentrations (MIC) of compounds according to the invention for a number of veterinary bacterial pathogens were determined by the broth-microdilution method according to CLSI document VET01-A4.
Microdilution trays containing a doubling dilution series of the test compound were used for the tests. The MIC results were interpreted according to the CLSI documents VET01-S3. The lowest concentration of compound at which no visible growth (i.e. no turbidity) detected by the unaided eye was recorded as the MIC.

≈ marks a conversion by molar mass, not a printed value.

Compound `CC[C@H](C)[C@H](NC(=O)c1ccc(C#Cc2ccc(CNCc3ccncc3)cc2)cc1)C(=O)NO` [Compound 132] registered an MIC PM 6267 in assay [1] of at most 0.1 µg/mL. Further, the MIC MH 6374 in [2] is 0.8 µg/mL (≈ 1.7 µM). The MIC MH 13093 in assay [3] was determined as 0.8 µg/mL (≈ 1.7 µM). In [4], this compound showed an MIC MH 6357 of 1.6 µg/mL (≈ 3.4 µM). In assay [5], this compound registered an MIC PM 10775 of at most 0.1 µg/mL. The compound also showed an MIC MH 12587 in [6] of 0.8 µg/mL (≈ 1.7 µM). Further, the MIC MH 10720 in assay [7] is 0.2 µg/mL (≈ 0.425 µM). In [8], this compound gave an MIC PM 12080 of 0.4 µg/mL (≈ 0.85 µM). Besides, in [9], the MIC MH 13065 was determined as 0.8 µg/mL (≈ 1.7 µM).
Regarding `CN(C)c1ccc(CNCc2ccc(C#Cc3ccc(C(=O)N[C@@H](CO)C(=O)NO)cc3)cc2)cc1` [Compound 134], the MIC PM 6267 in assay [1] is 0.8 µg/mL (≈ 1.64 µM). Besides, in assay [2], the MIC MH 6374 stood at 6.3 µg/mL (≈ 12.9 µM). In assay [3], this compound yielded an MIC MH 13093 of 25 µg/mL (≈ 51.4 µM). For the same compound, the MIC MH 6357 in assay [4] was determined as 25 µg/mL (≈ 51.4 µM). Moreover, the MIC PM 10775 in assay [5] is at most 0.1 µg/mL. Also, the MIC MH 12587 in assay [6] turned out to be 12.5 µg/mL (≈ 25.7 µM). This compound returned an MIC MH 10720 in [7] of 6.3 µg/mL (≈ 12.9 µM). Also, in assay [8], the MIC PM 12080 is 3.1 µg/mL (≈ 6.37 µM). Besides, the MIC MH 13065 in assay [9] was 12.5 µg/mL (≈ 25.7 µM).
In assay [1], `CC(C)[C@H](NC(=O)c1ccc(C#Cc2ccc(CN3CCN(c4ccccc4)CC3)cc2)cc1)C(=O)NO` [Compound 135] had an MIC PM 6267 of 0.8 µg/mL (≈ 1.57 µM). In assay [2], the MIC MH 6374 is 6.3 µg/mL (≈ 12.3 µM). Also, in [3], the MIC MH 13093 turned out to be 25 µg/mL (≈ 49 µM). Moreover, in [4], the MIC MH 6357 was 3.1 µg/mL (≈ 6.07 µM). For the same compound, the MIC PM 10775 in assay [5] was at most 0.1 µg/mL. This compound also gave an MIC MH 12587 in assay [6] of 1 µg/mL (≈ 1.96 µM). Further, the MIC MH 10720 in assay [7] stood at 0.8 µg/mL (≈ 1.57 µM). Besides, the MIC PM 12080 in assay [8] turned out to be 0.8 µg/mL (≈ 1.57 µM). The compound also came in with an MIC MH 13065 in assay [9] of 25 µg/mL (≈ 49 µM).
As to `CC[C@H](C)[C@H](NC(=O)c1ccc(C#Cc2ccc(CNCc3nccs3)cc2)cc1)C(=O)NO` [Compound 188], in assay [1], the MIC PM 6267 is at most 0.1 µg/mL. Also, the MIC MH 6374 in assay [2] was 1.6 µg/mL (≈ 3.36 µM). Moreover, the MIC MH 13093 in [3] stood at 0.8 µg/mL (≈ 1.68 µM). The MIC MH 6357 in assay [4] amounted to 0.8 µg/mL (≈ 1.68 µM). In addition, the MIC PM 10775 in assay [5] is at most 0.1 µg/mL. For the same compound, the MIC MH 12587 in assay [6] was 3.1 µg/mL (≈ 6.5 µM). Further, the MIC MH 10720 in assay [7] was at most 0.1 µg/mL. Further, in [8], the MIC PM 12080 is at most 0.1 µg/mL. Further, in assay [9], the MIC MH 13065 is 0.8 µg/mL (≈ 1.68 µM).
For `CC[C@H](C)[C@H](NC(=O)c1ccc(C#Cc2ccc(CNCC#N)cc2)cc1)C(=O)NO` [Compound 192], in assay [1], the MIC PM 6267 was at most 0.1 µg/mL. Further, the MIC MH 6374 in assay [2] is 1.6 µg/mL (≈ 3.82 µM). In addition, the MIC MH 13093 in assay [3] stood at 0.8 µg/mL (≈ 1.91 µM). The same compound registered an MIC MH 6357 in [4] of 0.8 µg/mL (≈ 1.91 µM). In [5], the MIC PM 10775 is at most 0.1 µg/mL. In assay [6], this compound gave an MIC MH 12587 of 3.1 µg/mL (≈ 7.41 µM). The MIC MH 10720 in [7] is 0.2 µg/mL (≈ 0.478 µM). The same compound displayed an MIC PM 12080 in assay [8] of at most 0.1 µg/mL. Moreover, in assay [9], the MIC MH 13065 worked out at 0.8 µg/mL (≈ 1.91 µM).
Compound `CC(C)[C@H](NC(=O)c1ccc(C#Cc2ccc(CN3CCCOCC3)cc2)cc1)C(=O)NO` [Compound 202] came in with an MIC PM 6267 in [1] of at most 0.1 µg/mL. The compound also came in with an MIC MH 6374 in assay [2] of 3.1 µg/mL (≈ 6.9 µM). Besides, the MIC MH 13093 in assay [3] turned out to be 1.6 µg/mL (≈ 3.56 µM). Also, the MIC MH 6357 in assay [4] came out at 0.8 µg/mL (≈ 1.78 µM). Moreover, the MIC PM 10775 in assay [5] was at most 0.1 µg/mL. This compound also showed an MIC MH 12587 in [6] of 3.1 µg/mL (≈ 6.9 µM). The same compound showed an MIC MH 10720 in [7] of 0.2 µg/mL (≈ 0.445 µM). Besides, the MIC PM 12080 in [8] is at most 0.1 µg/mL. The MIC MH 13065 in [9] stood at 1.6 µg/mL (≈ 3.56 µM).
In [1], `COCCN(C)Cc1ccc(C#Cc2ccc(C(=O)N[C@H](C(=O)NO)C(C)C)cc2)cc1` [Compound 203] came in with an MIC PM 6267 of at most 0.1 µg/mL. The compound further had an MIC MH 6374 in assay [2] of 1.6 µg/mL (≈ 3.66 µM). In [3], this compound registered an MIC MH 13093 of 1.6 µg/mL (≈ 3.66 µM). The MIC MH 6357 in [4] turned out to be 1.6 µg/mL (≈ 3.66 µM). Besides, the MIC PM 10775 in assay [5] is at most 0.1 µg/mL. In assay [6], this compound gave an MIC MH 12587 of 3.1 µg/mL (≈ 7.09 µM). Besides, in assay [7], the MIC MH 10720 worked out at 0.2 µg/mL (≈ 0.457 µM). Besides, the MIC PM 12080 in assay [8] was at most 0.1 µg/mL. Besides, in assay [9], the MIC MH 13065 stood at 0.8 µg/mL (≈ 1.83 µM).
In assay [1], `CC(C)[C@H](NC(=O)c1ccc(C#Cc2ccc(CNCC#N)cc2)cc1)C(=O)NO` [Compound 204] showed an MIC PM 6267 of at most 0.1 µg/mL. In assay [2], this compound showed an MIC MH 6374 of 0.4 µg/mL (≈ 0.989 µM). The compound also displayed an MIC MH 13093 in assay [3] of 0.4 µg/mL (≈ 0.989 µM). Further, the MIC MH 6357 in assay [4] came out at 0.4 µg/mL (≈ 0.989 µM). For the same compound, the MIC PM 10775 in assay [5] was at most 0.1 µg/mL. The same compound returned an MIC MH 12587 in assay [6] of 0.8 µg/mL (≈ 1.98 µM). The same compound showed an MIC MH 10720 in assay [7] of at most 0.1 µg/mL. In assay [8], the MIC PM 12080 is at most 0.1 µg/mL. Moreover, in assay [9], the MIC MH 13065 stood at 0.2 µg/mL (≈ 0.494 µM).
`CC(C)(O)[C@H](NC(=O)c1ccc(C#Cc2ccc(CN3CCCC3)cc2)cc1)C(=O)NO` [Compound 225] gave an MIC PM 6267 in assay [1] of at most 0.1 µg/mL. The compound also gave an MIC MH 6374 in assay [2] of 6.3 µg/mL (≈ 14.5 µM). The same compound showed an MIC MH 13093 in assay [3] of 12.5 µg/mL (≈ 28.7 µM). This compound also showed an MIC MH 6357 in assay [4] of 12.5 µg/mL (≈ 28.7 µM). Also, the MIC PM 6391 in assay [10] amounted to 0.8 µg/mL (≈ 1.84 µM). This compound also gave an MIC MH 12587 in [6] of 12.5 µg/mL (≈ 28.7 µM). The same compound yielded an MIC MH 10720 in assay [7] of 1.6 µg/mL (≈ 3.67 µM). In [8], this compound displayed an MIC PM 12080 of 0.8 µg/mL (≈ 1.84 µM). Besides, in assay [9], the MIC MH 13065 was determined as 12.5 µg/mL (≈ 28.7 µM).
